Results: ChEMBL document CHEMBL1201862, “PubChem BioAssay data set” (2004)
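A five-concentration, 48-hour dose response in 96-well plates underlies each endpoint, interpolated linearly between surrounding concentrations. GI50: concentration for 50% inhibition of growth.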 Calls of active or inactive are those of the source. Cut-off read from the data, not from the text of the source: active = GI50 up to about 1.1 µM and inactive = higher.

Legend:
Experiment in all cases: NCI tumour cell line growth inhibition, 48 h
[1] = test system: HL-60
[2] = test system: HCT-15
[3] = test system: MDA-MB-435
[4] = test system: NCI/ADR-RES
[5] = test system: IGROV-1
[6] = test system: U-251
[7] = test system: OVCAR-5
[8] = test system: UACC-257
[9] = test system: CAKI-1
[10] = test system: RPMI-8226
[11] = test system: LOX IMVI
[12] = test system: MDA-N
[13] = test system: BT-549
[14] = test system: HOP-62
[15] = test system: SK-MEL-28
[16] = test system: CCRF-CEM
[17] = test system: M14
[18] = test system: EKVX
[19] = test system: PC-3
[20] = test system: UO-31

Structure (SMILES)	GI50 [1]	GI50 [2]	GI50 [3]	GI50 [4]	GI50 [5]	GI50 [6]	GI50 [7]	GI50 [8]	GI50 [9]	GI50 [10]	GI50 [11]	GI50 [12]	GI50 [13]	GI50 [14]	GI50 [15]	GI50 [16]	GI50 [17]	GI50 [18]	GI50 [19]	GI50 [20]
Cc1nc(SCC(=O)Nc2ccccc2)c2sc(=S)n(-c3ccccc3)c2n1	> 10 µM (inactive)	> 10 µM	> 10 µM (inactive)	> 10 µM (inactive)	> 10 µM (inactive)	8.87 µM (inactive)	> 10 µM (inactive)	> 10 µM (inactive)	> 10 µM (inactive)	> 10 µM (inactive)	> 10 µM (inactive)	> 10 µM (inactive)	> 10 µM (inactive)	8.71 µM (inactive)	> 10 µM (inactive)	> 10 µM (inactive)	> 10 µM (inactive)	> 10 µM (inactive)	> 10 µM (inactive)	
COC12C=CC(CC1)C(C)(C)C2OS(C)(=O)=O (configuration not stated)	> 100 µM (inactive)	> 100 µM	> 100 µM (inactive)	> 100 µM (inactive)	> 100 µM (inactive)	> 100 µM (inactive)	> 100 µM (inactive)	> 100 µM (inactive)	> 100 µM (inactive)	> 100 µM (inactive)		> 100 µM (inactive)	> 100 µM (inactive)	> 100 µM (inactive)	> 100 µM (inactive)	> 100 µM (inactive)	> 100 µM (inactive)	> 100 µM (inactive)	> 100 µM (inactive)	> 100 µM (inactive)
COc1ccc2c(c1)[C@@]13CCCC[C@H]1[C@@H](C2)N(C)CC3=O	8.04 µM (inactive)	17.8 µM	19 µM (inactive)	26.9 µM (inactive)	17.4 µM (inactive)	22.2 µM (inactive)	17.3 µM (inactive)	16.5 µM (inactive)	28.3 µM (inactive)	25.6 µM (inactive)	16.9 µM (inactive)	15.3 µM (inactive)	17.4 µM (inactive)	> 100 µM (inactive)	16.1 µM (inactive)	19.2 µM (inactive)	16.1 µM (inactive)	18.5 µM (inactive)	14.8 µM (inactive)	18.7 µM (inactive)
COC(=O)C1=C(C)NC(C)=C(C(=O)OC)C1c1ccc(NO)cc1	1.53 µM (inactive)	10.9 µM	14.1 µM (inactive)	18.8 µM (inactive)	16.3 µM (inactive)	15.9 µM (inactive)	15.7 µM (inactive)	11 µM (inactive)	13 µM (inactive)	1.73 µM (inactive)	5.68 µM (inactive)	12.2 µM (inactive)	13.2 µM (inactive)	14.6 µM (inactive)	17.5 µM (inactive)	0.897 µM (active)	14.6 µM (inactive)	19.5 µM (inactive)	13.4 µM (inactive)	11.3 µM (inactive)
O=C1C(CN2CCCCC2)CCC1CN1CCCCC1 (configuration not stated)	1.5 µM (inactive)	20 µM	33 µM (inactive)	37.4 µM (inactive)	32.1 µM (inactive)	> 46.7 µM (inactive)	11.4 µM (inactive)	30.3 µM (inactive)	9.48 µM (inactive)	9.91 µM (inactive)	16 µM (inactive)	15 µM (inactive)	19.1 µM (inactive)	> 100 µM (inactive)	20 µM (inactive)	1.06 µM (active)	15.5 µM (inactive)	> 100 µM (inactive)	27.1 µM (inactive)	15 µM (inactive)
Cc1ccc(NC(=O)/C(Cc2cc(=O)oc3cc(O)ccc23)=N\NC(C)(C)C)cc1C	> 100 µM (inactive)	> 100 µM	> 100 µM (inactive)	> 100 µM (inactive)		> 100 µM (inactive)		> 100 µM (inactive)	> 100 µM (inactive)	> 100 µM (inactive)	> 100 µM (inactive)	> 100 µM (inactive)	> 100 µM (inactive)		> 100 µM (inactive)	> 100 µM (inactive)	> 100 µM (inactive)		> 100 µM (inactive)	> 100 µM (inactive)
Clc1ccc(-c2nnc(-c3c(Cl)c(Cl)c(Cl)c(Cl)c3-c3nc4ccccc4[nH]3)o2)cc1	> 100 µM (inactive)	55.3 µM	> 100 µM (inactive)	47.4 µM (inactive)	30.2 µM (inactive)		> 100 µM (inactive)	> 100 µM (inactive)	56.1 µM (inactive)	31.8 µM (inactive)	71.9 µM (inactive)	53.5 µM (inactive)	70.1 µM (inactive)	> 100 µM (inactive)	> 100 µM (inactive)	59.4 µM (inactive)	69.8 µM (inactive)	54.3 µM (inactive)	97.5 µM (inactive)	42.7 µM (inactive)
O=C1Nc2cc([N+](=O)[O-])ccc2N/C1=C/C(=O)c1ccc(Cl)cc1	19.8 µM (inactive)	12.6 µM	18.7 µM (inactive)	7.71 µM (inactive)	12.3 µM (inactive)	6.56 µM (inactive)	21.5 µM (inactive)	27.5 µM (inactive)	17.6 µM (inactive)	10.9 µM (inactive)	11.3 µM (inactive)	24.3 µM (inactive)	5.27 µM (inactive)		10.6 µM (inactive)	10.5 µM (inactive)	12.9 µM (inactive)	15.7 µM (inactive)	16.6 µM (inactive)	25.1 µM (inactive)
